The source of these data is patent publication USRE47302E1 (ONYX THERAPEUTICS INC., priority 2013, dated 2019).

Data set [1] addresses T1, proteasome subunit β5 (beta5) (Homo sapiens, UniProt P28074).
T1 construct: Lysate from the human acute lymphoblastic leukemia cell line, MOLT-4; endogenous in cells; host or cells: MOLT-4
The data set is described as follows: Proteasome active-site ELISA (ProCISE), beta5, MOLT-4 lysate. The class given is biochemical. To be noted: MOLT4 lysate, human, 1 h continuous treatment, 25° C. The essentials:
(§1)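 MOLT-4 cell lysate treated 1 h at 25 °C with compound; probe-bound subunits denatured, pulled down on streptavidin beads and detected with subunit-specific antibodies plus HRP chemiluminescence.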
Background: An ELISA detects its analyte on a solid surface through an enzyme-linked reagent.

Data set [2] addresses human 20S immunoproteasome (i20S) (Homo sapiens, UniProt P28062). Description: 20S proteasome assay, chymotrypsin-like activity (succinyl-Leu-Leu-Val-Tyr-AMC), i20S. The format is biochemical. To be noted: LLVY substrate, 1 h continuous. The text has this:
(§2) Assay buffer consisted of TE buffer [20 mmol/L Tris (pH 8.0), 0.5 mmol/L EDTA] with (20S) or without (cell lysate) 0.03% SDS. Reactions were initiated by enzyme or lysate addition and monitored for AMC product formation at 27jC with a plate-based spectofluorometer (Tecan).

Data set [3] has as its target human constitutive 20S proteasome (c20S) (Homo sapiens, UniProt P28074). The data set is described as follows: 20S proteasome assay, chymotrypsin-like activity (succinyl-Leu-Leu-Val-Tyr-AMC), c20S. The format is biochemical. As to conditions: LLVY substrate, 1 h continuous.
Source text: as §2

The target of data set [4] is T2, immunoproteasome subunit LMP7 (Homo sapiens, UniProt P28062).
T2 construct: Lysate from the human acute lymphoblastic leukemia cell line, MOLT-4; endogenous in cells; host or cells: MOLT-4
The data set is described as follows: Proteasome active-site ELISA (ProCISE), LMP7, MOLT-4 lysate. The class given is biochemical. To be noted: MOLT4 lysate, 1 h continuous treatment, 25° C. An outline of the steps: as §1

The nature of data set [5]: Solubility pH 7. As to conditions: pH 7, aqueous buffer.

Values after ≈ are worked out from the molar mass of the structure shown.

In the case of `COc1ccc([C@@H](O)[C@H](NC(=O)[C@H](C)NC(=O)CN2CCOCC2)C(=O)N[C@@H](CC2CCCC2)C(=O)[C@@]2(C)CO2)cc1` [Compound C-1022, (2S,3R)-N-((S)-3-Cyclopentyl-1-((R)-2-methyloxiran-2-yl)-1-oxopropan-2-yl)-3-hydroxy-3-(4-methoxyphenyl)-2-((S)-2-(2-morpholinoacetamido)propanamido)propanamide], the IC50 (as a rule, the concentration needed to halve the response being measured) came out at 1110 nM in data set [1], 115 nM in data set [2], 729 nM in data set [3] and 85.1 nM in data set [4]. For the same compound, the concentration in solution in data set [5] (solubility) was 4050 µg/mL (≈ 6880 µM).
The like results for `C[C@H](NC(=O)CN1CCOCC1)C(=O)N[C@@H](Cc1ccc(S(C)(=O)=O)cc1)C(=O)N[C@@H](CC1CCCC1)C(=O)[C@@]1(C)CO1` [Compound C-1027, (S)-N-((S)-3-cyclopentyl-1-((R)-2-methyloxiran-2-yl)-1-oxopropan-2-yl)-3-(4-(methylsulfonyl)phenyl)-2-((S)-2-(2-morpholinoacetamido)propanamido)propanamide] were, in that order, 1050 nM, 108 nM, 775 nM, 165 nM and 5750 µg/mL (≈ 9260 µM).
The like results for `COc1ccc(C[C@H](NC(=O)[C@@H](C)NC(=O)C2CCOCC2)C(=O)N[C@@H](CC2CCCC2)C(=O)[C@@]2(C)CO2)cc1` [Compound C-1028, N-((R)-1-(((S)-1-(((S)-3-cyclopentyl-1-((R)-2-methyloxiran-2-yl)-1-oxopropan-2-yl)amino)-3-(4-methoxyphenyl)-1-oxopropan-2-yl)amino)-1-oxopropan-2-yl)tetrahydro-2H-pyran-4-carboxamide] were, in that order, 807 nM, 53.8 nM, 1010 nM, 52.6 nM and 215 µg/mL (≈ 385 µM).
The like results for `COc1ccc(C[C@H](NC(=O)[C@@H](C)NC(=O)C2CC(=O)C2)C(=O)N[C@@H](CC2CCCC2)C(=O)[C@@]2(C)CO2)cc1` [Compound C-1029, N-((R)-1-(((S)-1-(((S)-3-cyclopentyl-1-((R)-2-methyloxiran-2-yl)-1-oxopropan-2-yl)amino)-3-(4-methoxyphenyl)-1-oxopropan-2-yl)amino)-1-oxopropan-2-yl)-3-oxocyclobutanecarboxamide] were, in that order, 3790 nM, 214 nM, 4110 nM, 303 nM and 822 µg/mL (≈ 1520 µM).
Turning to `COc1ccc(C[C@H](NC(=O)[C@H](C)NC(=O)CN2CCOCC2)C(=O)N[C@@H](CC2CCCC2)C(=O)[C@H]2CO2)cc1` [Compound C-1030, (S)-N-((S)-3-cyclopentyl-1-((R)-oxiran-2-yl)-1-oxopropan-2-yl)-3-(4-methoxyphenyl)-2-((S)-2-(2-morpholinoacetamido)propanamido)propanamide], the IC50 is 497 nM in data set [1], 7.93 nM in data set [2], 201 nM in data set [3] and 11.2 nM in data set [4]. The solubility – broadly, the dissolved amount per volume that the medium holds – in data set [5] amounted to 220 µg/mL (≈ 394 µM).
The like results for `COc1ccc(C[C@H](NC(=O)[C@@H](C)NC(=O)[C@H]2C[C@H](O)C2)C(=O)N[C@@H](CC2CCCC2)C(=O)[C@@]2(C)CO2)cc1` [Compound C-1041, (1r,3R)-N-((R)-1-(((S)-1-(((S)-3-cyclopentyl-1-((R)-2-methyloxiran-2-yl)-1-oxopropan-2-yl)amino)-3-(4-methoxyphenyl)-1-oxopropan-2-yl)amino)-1-oxopropan-2-yl)-3-hydroxycyclobutanecarboxamide] were, in that order, 12500 nM, 232 nM, 7030 nM, 440 nM and 1830 µg/mL (≈ 3360 µM).
In the same order, the values of `COc1ccc(C[C@H](NC(=O)[C@H](C)NC(=O)CN2CCC(F)(F)CC2)C(=O)N[C@@H](CC2CCCC2)C(=O)[C@@]2(C)CO2)cc1` [Compound C-1046, (S)-N-((S)-3-cyclopentyl-1-((R)-2-methyloxiran-2-yl)-1-oxopropan-2-yl)-2-((S)-2-(2-(4,4-difluoropiperidin-1-yl)acetamido)propanamido)-3-(4-methoxyphenyl)propanamide] are 198 nM, 63.5 nM, 361 nM, 37.9 nM and 152 µg/mL (≈ 250 µM).
Consider `C[C@H](NC(=O)CN1CCOCC1)C(=O)N[C@@H](Cc1ccc(C(N)=O)cc1)C(=O)N[C@@H](CC1CCCC1)C(=O)[C@@]1(C)CO1` [Compound C-1049, 4-((S)-3-(((S)-3-cyclopentyl-1-((R)-2-methyloxiran-2-yl)-1-oxopropan-2-yl)amino)-2-((S)-2-(2-morpholinoacetamido)propanamido)-3-oxopropyl)benzamide], for which the IC50 came out at 796 nM in data set [1], 66.8 nM in data set [2], 305 nM in data set [3] and 153 nM in data set [4]. The same compound returned a solubility in data set [5] of 3510 µg/mL (≈ 5990 µM).
In the same order, the values of `C[C@H](NC(=O)CN1CCOCC1)C(=O)N[C@@H](Cc1ccc(C#N)cc1)C(=O)N[C@@H](CC1CCCC1)C(=O)[C@@]1(C)CO1` [Compound C-1050, (S)-3-(4-cyanophenyl)-N-((S)-3-cyclopentyl-1-((R)-2-methyloxiran-2-yl)-1-oxopropan-2-yl)-2-((S)-2-(2-morpholinoacetamido)propanamido)propanamide] are 765 nM, 53.5 nM, 277 nM, 116 nM and 1280 µg/mL (≈ 2250 µM).
In the same order, the values of `C[C@@H](NC(=O)C1CCOCC1)C(=O)N[C@@H](Cc1ccc(S(C)(=O)=O)cc1)C(=O)N[C@@H](CC1CCCC1)C(=O)[C@@]1(C)CO1` [Compound C-1051, N-((R)-1-(((S)-1-(((S)-3-cyclopentyl-1-((R)-2-methyloxiran-2-yl)-1-oxopropan-2-yl)amino)-3-(4-(methylsulfonyl)phenyl)-1-oxopropan-2-yl)amino)-1-oxopropan-2-yl)tetrahydro-2H-pyran-4-carboxamide] are 705 nM, 45.1 nM, 978 nM, 90.8 nM and 702 µg/mL (≈ 1160 µM).
For the compound `COc1ccc(C[C@H](NC(=O)[C@@H](C)NC(=O)[C@@H]2CCCOC2)C(=O)N[C@@H](CC2CCCC2)C(=O)[C@@]2(C)CO2)cc1` [Compound C-1052, (R)-N-((R)-1-(((S)-1-(((S)-3-cyclopentyl-1-((R)-2-methyloxiran-2-yl)-1-oxopropan-2-yl)amino)-3-(4-methoxyphenyl)-1-oxopropan-2-yl)amino)-1-oxopropan-2-yl)tetrahydro-2H-pyran-3-carboxamide], the IC50 was determined as 512 nM in data set [1], 44.5 nM in data set [2], 515 nM in data set [3] and 101 nM in data set [4]. Further, the solubility in data set [5] is 706 µg/mL (≈ 1270 µM).
The like results for `COc1ccc(C[C@H](NC(=O)[C@@H](C)NC(=O)[C@H]2CCCOC2)C(=O)N[C@@H](CC2CCCC2)C(=O)[C@@]2(C)CO2)cc1` [Compound C-1053, (S)-N-((R)-1-(((S)-1-(((S)-3-cyclopentyl-1-((R)-2-methyloxiran-2-yl)-1-oxopropan-2-yl)amino)-3-(4-methoxyphenyl)-1-oxopropan-2-yl)amino)-1-oxopropan-2-yl)tetrahydro-2H-pyran-3-carboxamide] were, in that order, 4540 nM, 98.9 nM, 3770 nM, 270 nM and 648 µg/mL (≈ 1160 µM).
In the same order, the values of `C[C@H](NC(=O)CN1CCOCC1)C(=O)N[C@@H](Cc1ccc(S(N)(=O)=O)cc1)C(=O)N[C@@H](CC1CCCC1)C(=O)[C@@]1(C)CO1` [Compound C-1054, (S)-N-((S)-3-cyclopentyl-1-((R)-2-methyloxiran-2-yl)-1-oxopropan-2-yl)-2-((S)-2-(2-morpholinoacetamido)propanamido)-3-(4-sulfamoylphenyl)propanamide] are 805 nM, 76.5 nM, 667 nM, 131 nM and 2860 µg/mL (≈ 4600 µM).
In the same order, the values of `COc1ccc(C[C@H](NC(=O)[C@@H](C)NC(=O)C2COC2)C(=O)N[C@@H](CC2=CCCC2)C(=O)[C@@]2(C)CO2)cc1` [Compound C-1055, N-((R)-1-(((S)-1-(((S)-3-(cyclopent-1-en-1-yl)-1-((R)-2-methyloxiran-2-yl)-1-oxopropan-2-yl)amino)-3-(4-methoxyphenyl)-1-oxopropan-2-yl)amino)-1-oxopropan-2-yl)oxetane-3-carboxamide] are 7150 nM, 149 nM, 4440 nM, 953 nM and 1300 µg/mL (≈ 2460 µM).
For `COc1ccc(C[C@H](NC(=O)[C@@H](C)NC(=O)[C@H]2CC[C@@H](O)CC2)C(=O)N[C@@H](CC2=CCCC2)C(=O)[C@@]2(C)CO2)cc1` [Compound C-1056, (1s,4S)-N-((R)-1-(((S)-1-(((S)-3-(cyclopent-1-en-1-yl)-1-((R)-2-methyloxiran-2-yl)-1-oxopropan-2-yl)amino)-3-(4-methoxyphenyl)-1-oxopropan-2-yl)amino)-1-oxopropan-2-yl)-4-hydroxycyclohexanecarboxamide], the IC50 in data set [1] was found to be 17.4 nM; in data set [2] it was 4.7 nM; in data set [3] it was 46.8 nM; in data set [4], 2.72 nM. In addition, the concentration in solution in data set [5] (solubility) came to 298 µg/mL (≈ 523 µM).
